Experimental data reported in patent publication US8614223B2, “Pyrimidine hydroxy amide compounds as protein deacetylase inhibitors and methods of use thereof” (Acetylon Pharmaceuticals, Inc., priority 2010, dated 2013).
pIC50: −log10 of the molar value. Where two headings read alike, the source gives them in different places.

Tests used:
refractory relapsed MM = conditions: 202 patients with refractory relapsed MM; cited from earlier work
HDAC2 = HDAC2 (Homo sapiens (Human), UniProt Q92769); experiment: HDAC enzyme assay, HDAC2; conditions: for HDAC2 fold over HDAC6 IC50 (selectivity for HDAC6): ratio HDAC2/HDAC6
Sequence of HDAC2 (Q92769 whole entry): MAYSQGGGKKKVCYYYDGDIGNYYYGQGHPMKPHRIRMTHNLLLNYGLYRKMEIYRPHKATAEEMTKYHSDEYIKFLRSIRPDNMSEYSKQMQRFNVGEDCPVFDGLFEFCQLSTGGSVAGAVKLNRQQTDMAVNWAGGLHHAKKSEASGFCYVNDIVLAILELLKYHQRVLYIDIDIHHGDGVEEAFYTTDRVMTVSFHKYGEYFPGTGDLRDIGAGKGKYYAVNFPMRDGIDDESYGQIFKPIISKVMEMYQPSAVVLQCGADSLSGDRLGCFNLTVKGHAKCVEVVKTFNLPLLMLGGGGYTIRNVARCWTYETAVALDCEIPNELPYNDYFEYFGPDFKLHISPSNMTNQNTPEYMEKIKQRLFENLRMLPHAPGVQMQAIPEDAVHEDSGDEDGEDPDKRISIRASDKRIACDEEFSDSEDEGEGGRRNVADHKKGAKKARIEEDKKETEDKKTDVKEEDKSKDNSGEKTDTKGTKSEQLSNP

HDAC3 = HDAC3 (Homo sapiens (Human), UniProt O15379); experiment: HDAC enzyme assay, HDAC3; conditions: for HDAC3 fold over HDAC6 IC50 (selectivity for HDAC6): ratio HDAC3/HDAC6
Sequence of HDAC3 (O15379 whole entry): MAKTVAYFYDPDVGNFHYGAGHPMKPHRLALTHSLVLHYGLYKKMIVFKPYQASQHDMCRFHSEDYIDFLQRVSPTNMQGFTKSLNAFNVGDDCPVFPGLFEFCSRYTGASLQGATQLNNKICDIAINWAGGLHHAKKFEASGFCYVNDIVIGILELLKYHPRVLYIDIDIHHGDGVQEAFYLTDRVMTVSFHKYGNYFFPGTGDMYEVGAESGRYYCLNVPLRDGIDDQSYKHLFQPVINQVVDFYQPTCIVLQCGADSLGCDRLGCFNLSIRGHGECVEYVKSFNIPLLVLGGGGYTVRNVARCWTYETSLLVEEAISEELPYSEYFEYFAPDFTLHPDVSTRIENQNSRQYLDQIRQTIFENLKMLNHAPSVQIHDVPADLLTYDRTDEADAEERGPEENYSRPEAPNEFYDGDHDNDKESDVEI
Sequence of HDAC3 (Q9Y618 395-489 partner): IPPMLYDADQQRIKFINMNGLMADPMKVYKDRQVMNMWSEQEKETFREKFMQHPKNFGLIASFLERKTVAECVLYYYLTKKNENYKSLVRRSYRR

HDAC1 = HDAC1 (Homo sapiens (Human), UniProt Q13547); experiment: HDAC enzyme assay, HDAC1; conditions: for HDAC1 fold over HDAC6 IC50 (selectivity for HDAC6): ratio HDAC1/HDAC6
Sequence of HDAC1 (Q13547 whole entry): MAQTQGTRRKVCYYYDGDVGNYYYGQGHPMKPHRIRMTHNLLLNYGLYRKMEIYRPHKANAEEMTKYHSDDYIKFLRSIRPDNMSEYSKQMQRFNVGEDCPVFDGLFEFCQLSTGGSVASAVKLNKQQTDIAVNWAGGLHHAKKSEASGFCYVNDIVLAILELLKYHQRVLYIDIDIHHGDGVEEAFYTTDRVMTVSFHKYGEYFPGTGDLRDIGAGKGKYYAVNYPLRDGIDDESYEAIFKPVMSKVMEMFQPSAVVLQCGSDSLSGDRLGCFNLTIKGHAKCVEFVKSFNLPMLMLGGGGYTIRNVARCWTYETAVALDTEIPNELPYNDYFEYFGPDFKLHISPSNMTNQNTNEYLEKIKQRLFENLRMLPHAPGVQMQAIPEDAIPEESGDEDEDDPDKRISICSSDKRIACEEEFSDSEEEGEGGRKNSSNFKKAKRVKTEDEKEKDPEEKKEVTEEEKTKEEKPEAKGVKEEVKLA

HDAC6 [1] = molecular target: T1, HDAC6 (Homo sapiens (Human), UniProt Q9UBN7); experiment: biochemical
T1 sequence (Q9UBN7 whole entry): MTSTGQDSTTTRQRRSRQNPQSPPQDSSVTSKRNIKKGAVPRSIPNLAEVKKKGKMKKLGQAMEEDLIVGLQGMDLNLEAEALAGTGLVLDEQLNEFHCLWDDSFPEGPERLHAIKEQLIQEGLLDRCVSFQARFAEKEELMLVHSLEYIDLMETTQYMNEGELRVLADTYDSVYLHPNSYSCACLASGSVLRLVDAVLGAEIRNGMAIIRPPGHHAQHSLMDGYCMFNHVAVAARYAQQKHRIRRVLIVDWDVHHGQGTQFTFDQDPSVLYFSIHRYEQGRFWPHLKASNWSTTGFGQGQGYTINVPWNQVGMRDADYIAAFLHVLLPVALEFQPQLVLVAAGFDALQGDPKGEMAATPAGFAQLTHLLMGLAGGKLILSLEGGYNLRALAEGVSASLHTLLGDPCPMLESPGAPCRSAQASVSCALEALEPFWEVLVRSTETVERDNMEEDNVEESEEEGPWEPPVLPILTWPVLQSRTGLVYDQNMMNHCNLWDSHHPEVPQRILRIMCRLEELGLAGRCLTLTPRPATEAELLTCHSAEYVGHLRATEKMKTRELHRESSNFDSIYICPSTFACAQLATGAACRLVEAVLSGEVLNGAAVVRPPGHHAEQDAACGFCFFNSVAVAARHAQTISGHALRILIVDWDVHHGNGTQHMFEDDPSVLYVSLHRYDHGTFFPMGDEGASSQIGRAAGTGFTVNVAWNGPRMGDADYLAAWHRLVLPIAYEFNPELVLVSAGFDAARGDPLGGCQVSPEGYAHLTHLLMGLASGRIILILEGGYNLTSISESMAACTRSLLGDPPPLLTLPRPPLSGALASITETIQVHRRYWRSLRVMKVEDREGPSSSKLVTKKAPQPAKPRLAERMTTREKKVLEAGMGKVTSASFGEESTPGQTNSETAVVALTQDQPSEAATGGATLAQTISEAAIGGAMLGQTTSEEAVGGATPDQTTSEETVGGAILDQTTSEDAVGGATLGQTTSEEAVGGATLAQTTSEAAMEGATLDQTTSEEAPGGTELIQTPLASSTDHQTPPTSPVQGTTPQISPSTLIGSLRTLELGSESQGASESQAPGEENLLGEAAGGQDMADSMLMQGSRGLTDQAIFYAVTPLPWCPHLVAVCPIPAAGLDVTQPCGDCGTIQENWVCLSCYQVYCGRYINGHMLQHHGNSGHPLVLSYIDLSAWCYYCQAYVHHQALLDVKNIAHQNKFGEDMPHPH

HDAC6 [2] = molecular target: T1, HDAC6; conditions: read-out: HDAC6 IC50

SMILES	complete and near complete responses (refractory relapsed MM) [%]	patients did not respond (refractory relapsed MM) [%]	responses (refractory relapsed MM) [%]	pIC50 (HDAC2)	HDAC2 fold over HDAC6 IC50 (selectivity for HDAC6) (HDAC2)	pIC50 (HDAC3)	HDAC3 fold over HDAC6 IC50 (selectivity for HDAC6) (HDAC3)	pIC50 (HDAC1)	HDAC1 fold over HDAC6 IC50 (selectivity for HDAC6) (HDAC1)	pIC50 (HDAC6 [1])	pIC50 (HDAC6 [2])	pIC50 (HDAC2; read-out: HDAC2 IC50)	pIC50 (HDAC3; read-out: HDAC3 IC50)	pIC50 (HDAC1; read-out: HDAC1 IC50)
CC(C)C[C@H](NC(=O)[C@H](Cc1ccccc1)NC(=O)c1cnccn1)B(O)O [bortezomib]	10	65	35											
COc1ccc(C2(Nc3ncc(C(=O)NO)cn3)CC2)cc1 [Compound 97]				7.55	(12.1x)	7.43	(16.4x)	7.72	(8.3x)	8.70				
O=C(NO)c1cnc(NCCc2cccc(Cl)c2)nc1 [Compound 42]					(24.1x)		(32.3x)		(19.5x)		8.40	7.01	6.89	7.11
O=C(NO)c1cnc(NC2(c3cccc(F)c3F)CC2)nc1 [Compound 143]					(5x)		(8.4x)		(3.4x)		8.40	7.77	7.54	7.92
O=C(NO)c1cnc(NC2(c3ccc(C(F)(F)F)cc3)CC2)nc1 [Compound 135]					(17.7x)		(51.8x)		(22.4x)		8.15	6.93	6.46	6.83
O=C(NO)c1cnc(NC2c3ccccc3-c3ccccc32)nc1 [Compound 111]					(40.5x)		(70x)		(48x)		7.72	6.12	5.88	6.04
Cc1cc(F)cc(Nc2ncc(C(=O)NO)cn2)c1 [Compound 24]					(50.9x)		(37.6x)		(26x)		8.30	6.58	6.71	6.88
O=C(NO)c1cnc(NCc2ccccc2)nc1 [Compound 35]					(76.2x)		(70x)		(42.3x)		8.70	6.85	6.89	7.11
O=C(NO)c1cnc(NCc2ccccc2C(F)(F)F)nc1 [Compound 38]					(103.5x)		(128.1x)		(67.5x)		8.15	6.14	6.05	6.33
O=C(NO)c1cnc(NC2(c3cc(C(F)(F)F)ccc3F)CC2)nc1 [Compound 126]					(3.9x)		(9.8x)		(3.2x)		8.70	8.05	7.66	8.15
CC(C)(Nc1ncc(C(=O)NO)cn1)c1ccccc1 [Compound 50]					(374.6x)		(547.1x)		(288.1x)		8.40	5.82	5.65	5.93
O=C(NO)c1cnc(Nc2ccc(Cl)cc2)nc1 [Compound 6]					(11.6x)		(13.3x)		(10.1x)		7.70	6.64	6.58	6.69
CC(C)(Nc1ncc(C(=O)NO)cn1)c1ccc(F)cc1F [Compound 70]					(327.2x)		(441.9x)		(217.2x)		8.52	6.01	5.88	6.19
O=C(NO)c1cnc(NCc2ccc(Cl)cc2)nc1 [Compound 36]					(31.2x)		(33x)		(17.5x)		8.70	7.15	7.12	7.40
O=C(NO)c1cnc(NCc2cccnc2)nc1 [Compound 106]					(36.5x)		(47.7x)		(25.3x)		8.40	6.88	6.76	7.04
O=C(NO)c1cnc(Nc2cccc(N3CCOCC3)c2)nc1 [Compound 29]					(106x)		(68.2x)		(60.9x)		8.10	6.09	6.28	6.33
O=C(NO)c1cnc(NC2(c3ccc(F)cc3F)CC2)nc1 [Compound 123]					(4.3x)		(9.6x)		(4.8x)		8.52	7.92	7.59	7.89
O=C(NO)c1cnc(NCc2ccccc2Cl)nc1 [Compound 33]					(116.2x)		(86.7x)		(56.4x)		8.70	6.65	6.77	6.96
O=C(NO)c1cnc(NC2CCOCC2)nc1 [Compound 104]					(24.1x)		(24x)		(16.7x)		7.31	5.93	5.93	6.09
CC(Nc1ncc(C(=O)NO)cn1)(c1ccc(F)cc1)c1ccc(F)cc1 [Compound 96]					(286.2x)		(662.8x)		(271.8x)		8.05	5.61	5.24	5.63
O=C(NO)c1cnc(NC2(c3ccc(F)cc3Cl)CC2)nc1 [Compound 144]					(10.8x)		(18.3x)		(7.9x)		8.52	7.47	7.24	7.60
O=C(NO)c1cnc(NCc2cccc(Cl)c2)nc1 [Compound 34]					(21.5x)		(25.7x)		(15.5x)		9.00	7.55	7.47	7.70
O=C(NO)c1cnc(NC2(c3cccs3)CCCCC2)nc1 [Compound 154]					(307.8x)		(647.4x)		(263.9x)		8.30	5.80	5.47	5.86
